Data published in patent publication US10273236B2, “Macrocyclic factor XIa inhibitors bearing heterocyclic groups” (Bristol-Myers Squibb Company, priority 2014, dated 2019).
Where a name gives a salt, the structure may show the parent alone.

Key:
[1] = target: T1, purified human Factor XIa (Homo sapiens, UniProt P03951); experiment: Factor XIa inhibition assay, chromogenic substrate S-2366 (Ki); assay type: biochemical
T1 construct: purchased Haematologic Technologies
Protocol: (§1) The effectiveness of compounds of the present invention as inhibitors of the coagulation Factors XIa, VIIa, IXa, Xa, XIIa, plasma kallikrein or thrombin, can be determined using a relevant purified serine protease, respectively, and an appropriate synthetic substrate. The rate of hydrolysis of the chromogenic or fluorogenic substrate by the relevant serine protease was measured both in the absence and presence of compounds of the present invention. […] A decrease in the rate of absorbance or fluorescence change in the presence of inhibitor is indicative of enzyme inhibition. Such methods are known to one skilled in the art. The results of this assay are expressed as the inhibitory constant, Ki.
Factor XIa determinations were made in 50 mM HEPES buffer at pH 7.4 containing 145 mM NaCl, 5 mM KCl, and 0.1% PEG 8000 (polyethylene glycol; JT Baker or Fisher Scientific). Determinations were made using purified human Factor XIa at a final concentration of 25-200 pM (Haematologic Technologies) and the synthetic substrate S-2366 (pyroGlu-Pro-Arg-pNA; Chromogenix or AnaSpec) at a concentration of 0.0002-0.001 M.
(§2) Values of Ki were determined by allowing the protease to react with the substrate in the presence of the inhibitor.
(§3) Reactions were allowed to go for periods of 20-180 minutes (depending on the protease) and the velocities (rate of absorbance or fluorescence change versus time) were measured.
(§4) The following relationships were used to calculate Ki values: (Vmax*S)/(Km+S) (vo−vs)/vs=I/(Ki(1+S/Km)) for a competitive inhibitor with one binding site; or vs/vo=A+((B−A)/1+((IC50/(I)^n))); and Ki=IC50/(1+S/Km) for a competitive inhibitor where: […]

[2] = target: T2, purified human plasma kallikrein (Homo sapiens, UniProt P03952); experiment: Plasma kallikrein inhibition assay, chromogenic substrate S-2302 (Ki); assay type: biochemical
T2 construct: Plasma prekallikrein is a zymogen of a trypsin-like serine protease; purchased Enzyme Research Laboratories
Protocol: as §1
Plasma kallikrein determinations were made in 0.1 M sodium phosphate buffer at a pH of 7.5 containing 0.1-0.2 M sodium chloride and 0.5% PEG 8000. Determinations were made using purified human plasma kallikrein (Enzyme Research Laboratories) at a final assay concentration of 200 pM and the synthetic substrate S-2302 (H-(D)-Pro-Phe-Arg-pNA; Chromogenix) at a concentration of 0.00008-0.0004 M.
as §2, §3, §4

T1 sequence (P03951 388-625 limits assumed): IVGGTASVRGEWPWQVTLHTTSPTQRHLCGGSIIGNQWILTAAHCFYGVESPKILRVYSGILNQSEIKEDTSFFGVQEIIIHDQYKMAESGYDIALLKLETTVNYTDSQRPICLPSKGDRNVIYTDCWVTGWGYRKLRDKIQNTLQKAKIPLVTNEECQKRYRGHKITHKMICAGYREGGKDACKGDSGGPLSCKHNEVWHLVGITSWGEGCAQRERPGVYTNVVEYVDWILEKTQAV
T1 sequence (P03951 19-387 partner limits assumed): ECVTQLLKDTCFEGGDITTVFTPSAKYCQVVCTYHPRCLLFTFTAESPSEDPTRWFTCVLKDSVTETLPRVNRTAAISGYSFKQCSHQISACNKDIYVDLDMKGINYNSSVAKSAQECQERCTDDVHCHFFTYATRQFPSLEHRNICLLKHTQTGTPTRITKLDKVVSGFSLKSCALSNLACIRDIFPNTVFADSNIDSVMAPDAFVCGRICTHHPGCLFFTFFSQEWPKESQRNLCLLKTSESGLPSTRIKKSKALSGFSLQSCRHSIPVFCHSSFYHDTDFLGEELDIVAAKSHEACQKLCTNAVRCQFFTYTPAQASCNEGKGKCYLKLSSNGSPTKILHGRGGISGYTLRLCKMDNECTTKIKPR
T2 sequence (P03952 391-638 limits assumed): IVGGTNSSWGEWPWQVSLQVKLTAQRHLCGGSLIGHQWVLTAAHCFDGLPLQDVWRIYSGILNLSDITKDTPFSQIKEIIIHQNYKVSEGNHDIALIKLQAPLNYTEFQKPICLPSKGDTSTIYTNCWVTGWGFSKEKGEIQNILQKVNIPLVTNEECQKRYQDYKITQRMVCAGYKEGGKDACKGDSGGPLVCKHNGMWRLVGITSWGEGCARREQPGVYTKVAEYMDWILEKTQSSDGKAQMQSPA
T2 sequence (P03952 20-390 partner limits assumed): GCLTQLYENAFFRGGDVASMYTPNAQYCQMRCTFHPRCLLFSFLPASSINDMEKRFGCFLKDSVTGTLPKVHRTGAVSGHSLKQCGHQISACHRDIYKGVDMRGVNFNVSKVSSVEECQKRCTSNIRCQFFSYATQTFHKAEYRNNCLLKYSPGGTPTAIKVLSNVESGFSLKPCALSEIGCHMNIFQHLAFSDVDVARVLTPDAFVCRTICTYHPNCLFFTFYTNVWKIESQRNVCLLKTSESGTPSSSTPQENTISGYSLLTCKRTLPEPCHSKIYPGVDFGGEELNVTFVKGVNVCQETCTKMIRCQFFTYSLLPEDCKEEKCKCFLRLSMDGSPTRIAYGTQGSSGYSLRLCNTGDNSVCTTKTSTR

SMILES | Ki [1] | Ki [2]
C[C@@H]1CCC[C@H](N2CCC(c3c(F)ccc(Cl)c3F)=CC2=O)c2cc(ccn2)-c2c(cnn2C(F)F)NC1=O [Example 22, (9R,13S)-13-[4-(3-chloro-2,6-difluorophenyl)-6-oxo-1,2,3,6-tetrahydropyridin-1-yl]-3-(difluoromethyl)-9-methyl-3,4,7,15-tetraazatricyclo [12.3.1.0^2,6]octadeca-1(18),2(6),4,14,16-pentaen-8-one] | 8 nM | 50 nM
C[C@@H]1CCC[C@H](N2CCC(c3c(Cl)ccc(Cl)c3F)=CC2=O)c2cc(ccn2)-c2c(cnn2C)NC1=O [Example 24, (9R,13S)-13-[4-(3,6-dichloro-2-fluorophenyl)-6-oxo-1,2,3,6-tetrahydropyridin-1-yl]-3,9-dimethyl-3,4,7,15-tetraazatricyclo[12.3.1.0^2,6]octadeca-1(18),2(6),4,14,16-pentaen-8-one] | 2.7 nM | 6 nM
C[C@@H]1CCC[C@H](n2ccc(-c3c(OC(F)F)ccc(Cl)c3F)cc2=O)c2cc(ccn2)-c2c(cnn2C)NC1=O [Example 27, (9R,13S)-13-{4-[3-chloro-6-(difluoromethoxy)-2-fluorophenyl]-2-oxo-1,2-dihydropyridin-1-yl}-3,9-dimethyl-3,4,7,15-tetraazatricyclo[12.3.1.0^2,6]octadeca-1(18),2(6),4,14,16-pentaen-8-one trifluoroacetate] | 4.9 nM | 40 nM
C[C@H]1C(=O)Nc2cnn(C)c2-c2ccnc(c2)[C@@H](n2ccc(-c3c(C(F)(F)F)ccc(Cl)c3F)cc2=O)CCC1F (stereo partly drawn) [Example 28, (9S,13S)-13-{4-[3-chloro-2-fluoro-6-(trifluoromethyl)phenyl]-2-oxo-1,2-dihydropyridin-1-yl}-10-fluoro-3,9-dimethyl-3,4,7,15-tetraazatricyclo[12.3.1.0^2,6]octadeca-1(18),2(6),4,14,16-pentaen-8-one trifluoroacetate] | 3 nM | 25 nM
C[C@@H]1CCC[C@H](N2CCC(c3c(Cl)ccc(Cl)c3F)=CC2=O)c2cc(ccn2)-c2c(cnn2C(F)F)NC1=O [Example 31, (9R,13S)-13-[4-(3,6-dichloro-2-fluorophenyl)-6-oxo-1,2,3,6-tetrahydropyridin-1-yl]-3-(difluoromethyl)-9-methyl-3,4,7,15-tetraazatricyclo [12.3.1.0^2,6]octadeca-1(18),2(6),4,14,16-pentaen-8-one] | 1.9 nM | 11 nM
[2H]C([2H])([2H])n1ncc2c1-c1ccnc(c1)[C@@H](N1CCC(c3cc(Cl)ccc3C#N)=CC1=O)CCC[C@@H](C)C(=O)N2 [Example 32, 4-chloro-2-{1-[(9R,13S)-3-(^2H3)methyl-9-methyl-8-oxo-3,4,7,15-tetraazatricyclo[12.3.1.0^2,6]octadeca-1(18),2(6),4,14,16-pentaen-13-yl]-6-oxo-1,2,3,6-tetrahydropyridin-4-yl}benzonitrile] | 2.4 nM | 4 nM
C[C@@H]1CCC[C@H](N2CCC(c3c(C(C)(F)F)ccc(Cl)c3F)=CC2=O)c2cc(ccn2)-c2c(cnn2C)NC1=O [Example 33, (9R,13S)-13-{4-[3-chloro-6-(1,1-difluoroethyl)-2-fluorophenyl]-6-oxo-1,2,3,6-tetrahydropyridin-1-yl}-3,9-dimethyl-3,4,7,15-tetraazatricyclo[12.3.1.0^2,6]octadeca-1(18),2(6),4,14,16-pentaen-8-one] | 5.7 nM | 50 nM
C[C@@H]1CCC[C@H](N2CCC(c3cc(Cl)ccc3-n3cc(Cl)nn3)=CC2=O)c2cc(ccn2)-c2c(cnn2CCOC(C)(C)C)NC1=O [Example 34, (9R,13S)-3-[2-(tert-butoxy)ethyl]-13-{4-[5-chloro-2-(4-chloro-1H-1,2,3-triazol-1-yl)phenyl]-6-oxo-1,2,3,6-tetrahydropyridin-1-yl}-9-methyl-3,4,7,15-tetraazatricyclo[12.3.1.0^2,6]octadeca-1(18),2(6),4,14,16-pentaen-8-one] | 1.1 nM | 50 nM

Results, then the compound that gave them:

Ki [1] | Ki [2] | SMILES
1.4 nM | 40 nM | C[C@H]1C(=O)Nc2cnn(C)c2-c2ccnc(c2)[C@@H](N2CCC(c3c(C(F)(F)F)ccc(Cl)c3F)=CC2=O)CCC1F (stereo partly drawn) [Example 20, (9S,13S)-13-{4-[3-chloro-2-fluoro-6-(trifluoromethyl)phenyl]-6-oxo-1,2,3,6-tetrahydropyridin-1-yl}-10-fluoro-3,9-dimethyl-3,4,7,15-tetraazatricyclo[12.3.1.0^2,6]octadeca-1(18),2(6),4,14,16-pentaen-8-one]
0.69 nM | 40 nM | C[C@@H]1CCC[C@H](N2CCC(c3c(OC(F)F)ccc(Cl)c3F)=CC2=O)c2cc(ccn2)-c2c(cnn2C(F)F)NC1=O [Example 21, (9R,13S)-13-{4-[3-chloro-6-(difluoromethoxy)-2-fluorophenyl]-6-oxo-1,2,3,6-tetrahydropyridin-1-yl}-3-(difluoromethyl)-9-methyl-3,4,7,15-tetraazatricyclo[12.3.1.0^2,6]octadeca-1(18),2(6),4,14,16-pentaen-8-one]
0.92 nM | 7 nM | C[C@@H]1CCC[C@H](N2CCC(c3c(OC(F)F)ccc(Cl)c3F)=CC2=O)c2cc(ccn2)-c2c(cnn2C)NC1=O [Example 23, (9R,13S)-13-{4-[3-chloro-6-(difluoromethoxy)-2-fluorophenyl]-6-oxo-1,2,3,6-tetrahydropyridin-1-yl}-3,9-dimethyl-3,4,7,15-tetraazatricyclo[12.3.1.0^2,6]octadeca-1(18),2(6),4,14,16-pentaen-8-one]
0.47 nM | 16 nM | CC(C)[C@@H]1CCC[C@H](N2CCC(c3cc(Cl)ccc3-n3cc(Cl)nn3)=CC2=O)c2cc(ccn2)-c2c(cnn2C)NC1=O [Example 25, (9S,13S)-13-{4-[5-chloro-2-(4-chloro-1H-1,2,3-triazol-1-yl)phenyl]-6-oxo-1,2,3,6-tetrahydropyridin-1-yl}-3-methyl-9-(propan-2-yl)-3,4,7,15-tetraazatricyclo[12.3.1.0^2,6]octadeca-1(18),2(6),4,14,16-pentaen-8-one]
0.48 nM | 5 nM | C[C@@H]1CCC[C@H](N2CCC(c3c(C(F)F)ccc(Cl)c3F)=CC2=O)c2cc(ccn2)-c2c(cnn2C)NC1=O [Example 26, (9R,13S)-13-{4-[3-chloro-6-(difluoromethyl)-2-fluorophenyl]-6-oxo-1,2,3,6-tetrahydropyridin-1-yl}-3,9-dimethyl-3,4,7,15-tetraazatricyclo [12.3.1.0^2,6]octadeca-1(18),2(6),4,14,16-pentaen-8-one]
0.6 nM | 6 nM | [2H]C([2H])([2H])n1ncc2c1-c1ccnc(c1)[C@@H](N1CCC(c3c(C(F)F)ccc(Cl)c3F)=CC1=O)CCC[C@@H](C)C(=O)N2 [Example 29, (9R,13S)-13-{4-[3-chloro-6-(difluoromethyl)-2-fluorophenyl]-6-oxo-1,2,3,6-tetrahydropyridin-1-yl}-3-(^2H3)methyl-9-methyl-3,4,7,15-tetraazatricyclo[12.3.1.0^2,6]octadeca-1(18),2(6),4,14,16-pentaen-8-one]
1 nM | 7 nM | [2H]C([2H])([2H])n1ncc2c1-c1ccnc(c1)[C@@H](N1CCC(c3c(OC(F)F)ccc(Cl)c3F)=CC1=O)CCC[C@@H](C)C(=O)N2 [Example 30, (9R,13S)-13-{4-[3-chloro-6-(difluoromethoxy)-2-fluorophenyl]-6-oxo-1,2,3,6-tetrahydropyridin-1-yl}-3-(^2H3)methyl-9-methyl-3,4,7,15-tetraazatricyclo[12.3.1.0^2,6]octadeca-1(18),2(6),4,14,16-pentaen-8-one]
0.82 nM | 32 nM | C[C@@H]1CCC[C@H](N2CCC(c3cc(Cl)ccc3-n3cc(Cl)nn3)=CC2=O)c2cc(ccn2)-c2c(cnn2CCO)NC1=O [Example 35, (9R,13S)-13-{4-[5-chloro-2-(4-chloro-1H-1,2,3-triazol-1-yl)phenyl]-6-oxo-1,2,3,6-tetrahydropyridin-1-yl}-3-(2-hydroxyethyl)-9-methyl-3,4,7,15-tetraazatricyclo[12.3.1.0^2,6]octadeca-1(18),2(6),4,14,16-pentaen-8-one]
1.7 nM | 5 nM | C[C@@H]1CCC[C@H](N2CCC(c3c(Br)ccc(Cl)c3F)=CC2=O)c2cc(ccn2)-c2c(cnn2C)NC1=O [Example 36, (9R,13S)-13-[4-(6-bromo-3-chloro-2-fluorophenyl)-6-oxo-1,2,3,6-tetrahydropyridin-1-yl]-3,9-dimethyl-3,4,7,15-tetraazatricyclo[12.3.1.0^2,6]octadeca-1(18),2(6),4,14,16-pentaen-8-one]
